Laboratory results reported in ChEMBL document CHEMBL1133204, “Synthesis and biological activities of an alpha-methyl and a beta-methyl carbapenem and the corresponding unsubstituted compound” (Bioorg Med Chem Lett, 2000).

Tests used:
Beta-lactamase TEM = Beta-lactamase TEM (Escherichia coli, UniProt P62593); assay: Beta-Lactamase inhibition activity after 15 min of pre-incubation with the enzyme isolated from Escherichia coli 205 TEM
Pseudomonas aeruginosa [1] = assay: Minimum inhibitory concentration against Pseudomonas aeruginosa in DIFCO nutrient agar after 18 hr incubation period at 37 degree C; assay type: functional
Enterococcus sp. = assay: Minimum inhibitory concentration against Enterobacter coccus in DIFCO nutrient agar after 18 hr incubation period at 37 degree C; assay type: functional
[2] = Minimum inhibitory concentration against S. Innsbruck in DIFCO nutrient agar after 18 h incubation period at 37 degree C
Pseudomonas aeruginosa [3] = assay: Minimum inhibitory concentration against Pseudomonas aeruginosa. res in DIFCO nutrient agar after 18 hr incubation period at 37 degree C; assay type: functional
Staphylococcus aureus [4] = assay: Minimum inhibitory concentration against Staphylococcus aureus res in DIFCO nutrient agar after 18 hr incubation period at 37 degree C; assay type: functional
Enterobacter cloacae = assay: Minimum inhibitory concentration against Enterobacter cloacae in DIFCO nutrient agar after 18 h incubation period at 37 degree C; assay type: functional
Escherichia coli [5] = assay: Minimum inhibitory concentration against Escherichia coli 1103 in DIFCO nutrient agar after 18 hr incubation period at 37 degree C; assay type: functional
[6] = Half life of hydrolysis of compound at pH 7.4, 37 degree C; assay type: ADME; settings: buffer
Staphylococcus aureus [7] = assay: Minimum inhibitory concentration against Staphylococcus aureus 1104 in DIFCO nutrient agar after 18 hr incubation period at 37 degree C; assay type: functional
Beta-lactamase = Beta-lactamase (Enterobacter cloacae, UniProt P05364); assay: Beta-Lactamase inhibition activity after 15 min of pre-incubation with the enzyme isolated from Enterobacter cloacae
Beta-lactamase, sequence (P05364 whole entry): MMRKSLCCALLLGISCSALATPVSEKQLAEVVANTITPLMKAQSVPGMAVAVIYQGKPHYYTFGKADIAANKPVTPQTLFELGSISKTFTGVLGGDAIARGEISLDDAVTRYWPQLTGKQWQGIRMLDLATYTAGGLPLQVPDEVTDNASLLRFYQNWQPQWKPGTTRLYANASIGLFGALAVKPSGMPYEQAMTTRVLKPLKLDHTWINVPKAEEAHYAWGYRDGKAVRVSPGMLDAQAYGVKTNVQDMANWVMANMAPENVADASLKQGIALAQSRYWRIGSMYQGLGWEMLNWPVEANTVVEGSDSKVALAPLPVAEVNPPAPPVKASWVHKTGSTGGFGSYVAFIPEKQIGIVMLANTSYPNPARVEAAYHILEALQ

Staphylococcus aureus [8] = assay: Minimum inhibitory concentration against Staph 25768 in DIFCO nutrient agar after 18 hr incubation period at 37 degree C; assay type: functional
Escherichia coli [9] = assay: Minimum inhibitory concentration against Escherichia coli 205 TEM in DIFCO nutrient agar after 18 hr incubation period at 37 degree C; assay type: functional
Staphylococcus aureus [10] = assay: Minimum inhibitory concentration against Staphylococcus aureus in DIFCO nutrient agar after 18 hr incubation period at 37 degree C; assay type: functional

Beta-lactamase TEM, sequence (P62593 whole entry): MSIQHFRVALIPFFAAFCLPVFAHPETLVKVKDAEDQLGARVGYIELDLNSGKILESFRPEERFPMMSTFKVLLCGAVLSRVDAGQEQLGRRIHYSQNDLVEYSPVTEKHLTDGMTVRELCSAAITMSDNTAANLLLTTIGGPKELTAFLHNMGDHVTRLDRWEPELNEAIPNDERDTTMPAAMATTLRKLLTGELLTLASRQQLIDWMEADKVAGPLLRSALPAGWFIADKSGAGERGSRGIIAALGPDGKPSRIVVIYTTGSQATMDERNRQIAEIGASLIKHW

SMILES | IC50 (Beta-lactamase TEM; read-out: IC50) [nM] | MIC (Pseudomonas aeruginosa [1]) [µg/mL] | MIC (Enterococcus sp.) [µg/mL] | MIC [2] [µg/mL] | MIC (Pseudomonas aeruginosa [3]) [µg/mL] | MIC (Staphylococcus aureus [4]) [µg/mL] | MIC (Enterobacter cloacae) [µg/mL] | MIC (Escherichia coli [5]) [µg/mL] | half-life [6] [min] | MIC (Staphylococcus aureus [7]) [µg/mL] | IC50 (Beta-lactamase) [nM] | MIC (Staphylococcus aureus [8]) [µg/mL] | MIC (Escherichia coli [9]) [µg/mL] | IC50 (Beta-lactamase TEM) [M l-1] | MIC (Staphylococcus aureus [10]) [µg/mL]
COC1=C(C(=O)[O-])N2C(=O)[C@H]([C@@H](C)O)C2[C@H]1C.[K+] (some centres undefined) | 130 | > 50 | > 50 | > 50 | > 50 | 25 | 5 | 1 | 4320 | 25 | 2100 | > 50 | 0.5 |  | 
COC1=C(C(=O)[O-])N2C(=O)[C@H]([C@@H](C)O)[C@H]2C1.[K+] |  | > 50 | 50 | 25 | > 50 | 2 | 5 | 2 | 345 | 1 | 510 | 5 | 1 | 0.00034 | 
COC1=C(C(=O)[O-])N2C(=O)[C@H]([C@@H](C)O)C2[C@@H]1C.[K+] (some centres undefined) | 230 | > 50 | > 50 | > 50 | > 50 |  | 25 | 10 | 195 | < 0.5 | 82 | 5 | 5 |  | 1
